# Assays:
# [1] = Dye-lipid binding by fluorescence lipid titration; type: physicochemical; conditions: for KA/KP ratio of binding constants of alcohol and phosphate: liposome suspensions
# Experimental: Dye-lipid binding. The binding of the dyes to lipid membranes was determined by fluorescence lipid titration^21 with large unilamellar vesicles (LUVs) made of 1-palmitoyl-2-oleoyl-phosphatidylcholine (POPC). The purity of the lipids was checked by 2-dimensional TLC^22. The vesicles were made by extrusion^23 in Tris-NaCl buffer (20 mM Tris, 100 mM NaCl, pH 8.1), using an extrusion apparatus and polycarbonate filters with 100 nm pore size (both Avestin Europe, Mannheim, Germany). Vesicle size was determined by quasielastic light scattering using an argon ion laser (Spectra-Physics, Darmstadt, Germany), a photomultiplier (Brookhaven Instruments, Vienna, Austria) and a correlator (ALV-5000, Langen, Germany). The lipid concentration was determined by a chromogenic enzyme assay (Biomerieux, Marcy I'Etoile, France). The standard deviation of three concentration measurements for every vesicle preparation was always below 4%. Vesicles were stored under argon at 4° C. in 15 ml Falcon Centrifuge Tubes (BD Labware Europe, Le Pont de Claix, France) and used within three days.
# To measure dye binding constants, we prepared 1 mM solutions of the dyes 1-3 by ultrasonication in Ethanol (1) or Tris-NaCl buffer (2,3). […] In the same buffer, suspensions of POPC vesicles with concentrations ranging from 100 nM to 10 mM were prepared by dilution of stock solutions. Dye and lipid were pre-thermostatted to 25° C. […] The fluorescence emission recorded at 600 nm with excitation at 488 nm was used for the evaluation of the partition coefficients.
# Dye binding to lipid. When styryl hemicyanines bind to lipid bilayers, their quantum yield of fluorescence is enhanced. […] We take advantage of that effect to examine the binding of Di-4-ASPP phosphate and Di-4-ASPP alcohol to lipid membranes by fluorescence titration^21. For comparison Di-4-ASPBS was also included in the investigation.
# Dispersions of large lipid vesicles (Ø≈100 nm) were made from palmitoyl-oleoyl-phosphatidylcholine (POPC) with lipid concentrations ranging over five orders of magnitude. […] The fluorescence intensity was enhanced with increasing concentration of lipid for all three dyes. The enhancement was shifted to higher lipid concentrations in the order Di-4-ASPP alcohol, Di-4-ASPBS and Di-4-ASPP phosphate.
# Binding. The dyes Di-10-phosphato-ASPBS (Di-10P-ASPBS) and Di-12-phosphato-ASPBS (Di-12P-ASPBS) as well as the corresponding products after enzymatic hydrolysis Di-10-hydroxy-ASPBS (Di-10A-ASPBS) and Di-12-hydroxy-ASPBS (Di-12A-ASPBS) were synthesized by organic chemical methods. Their binding to lipid membranes was tested by fluorescence lipid titration (cf. page 15, section dye binding to lipid). The binding constants amounted to 27 M^−1 (Di-10P-ASPBS), 250,000 M^−1 (Di-10A-ASPBS), 2100 M^−1 (Di-12P-ASPBS) and 3,000,000 M^−1 (Di-12P-ASPBS) (FIGS. 14 and 15 (center and right hand side)). The difference in binding constants between dye alcohol and dye phosphates (or dye precursors) therefore amounted to a factor of 10,000 for the pair Di-10P-ASPBS/Di-10A-ASPBS and to a factor of 1000 for the pair Di-12P-ASPBS/Di-12A-ASPBS. The binding curve for the more lipophilic pair Di-12P-ASPBS/Di-12A-ASPBS is shifted to […] lipid concentrations.
# [2] = system: Madine Darby Canine Kidney (MDCK) cells; assay: Enzyme induced staining of transiently transfected MDCK cells; type: cell-based; conditions: 200 nM
# Experimental: FIG. 19. Genetically Targeted Staining of MDCK cells with Di-10P-ASPBS and Di-12P-ASPBS. (A) Cells were cotransfected with the membrane-bound phosphatase construct termed ArtPlasMA AP and H2B-GFP, a nucleus-localized transfection marker. Brightfield image and fluorescence images before (−1 sec) and after addition of 200 nM Di-10P-ASPBS. (B) Analogous to row A, but using 200 nM Di-12P-ASPBS. (C) Control experiment. Cells were transfected only with H2B-GFP and incubated with 200 nM Di-12P-ASPBS. Brightfield image and fluorescence images before (−1 sec) and after addition of dye (8 min). (D) Control experiment. Cells were cotransfected with the membrane-bound phosphatase construct termed ArtPlasMA AP and H2B-GFP and incubated with the dye Di-10A-ASPBS. Brightfield image and fluorescence image before (−1 sec) and after addition of dye (20 sec).
# Two control experiments were performed: In the first control, cells were transfected only with the transfection marker H2B-GFP. […] In addition, no difference in staining intensity between transfected and untransfected cells can be discerned (FIG. 19C). In the second control experiment, cells were cotransfected with the phosphatase construct and the transfection marker.
Compound,"average binding constant K to lipid membrane ([1]; POPC vesicles, Tris-NaCl buffer pH 8.1, 25° C., dye 0.5 μM) [M⁻¹]",KA/KP ratio of binding constants of alcohol and phosphate ([1]; dye concentration 9.8 μM),KA/KP ratio of binding constants of alcohol and phosphate ([1]; low dye concentrations),increment of the binding energy Δ(ΔG) relative to the alcohol ([1]; −RT ln(K/KA)) [kJ/mol],difference in binding constants between dye alcohol and dye phosphate (precursor) ([1]; pair precursor/product dye) [factor],staining of directly adjacent cells ([2]; after 10 minutes incubation),localization of staining over several minutes ([2]; cells cotransfected with ArtPlasMA AP and H2B-GFP),staining of control cells without phosphatase ([2]; transfected only with H2B-GFP)
CCCCN(CCCC)c1ccc(/C=C/c2cc[n+](CCCOP(=O)([O-])O)cc2)cc1 [Di-4-ASPP phosphate],1140 ± 140,≈ 7,≈ 16,6.8,,,,
Di-12-phosphato-ASPBS [Di-12P-ASPBS],,,,,1000,Directly adjacent cells are weakly stained,Staining is well localized even after 10 minutes incubation,only weakly stained

# Reference: patent US7611863B2, “Selective staining of biomembranes using voltage-sensitive dyes” (Max-Planck-Gesellschaft zur Foerderung der Wissenschaften …, priority 2004, dated 2009)
